Assay results as given in patent publication US20110105397A1, “METHOD FOR TREATING HEART FAILURE WITH STRESSCOPIN-LIKE PEPTIDES” (priority 2009, published 2011).
Several values for one entry are separate records, joined by “and”; a condition that tells them apart may be missing. Identical values can stand only once. Like-named read-outs stand apart in the source and are kept apart here.

How the values were obtained:
human CRHR2 [1] = target: T1, human CRHR2 (Homo sapiens, UniProt Q13324); experiment: cAMP assay, h-CRHR2 transfected SK-N-MC cells; assay type: cell-based; conditions: for nH (Hill slope) / αmax (maximal asymptote): h-CRHR2; for αmax (maximal asymptote): in %
T1 construct: expressed in transfected cells
T1 sequence (Q13324 1-411): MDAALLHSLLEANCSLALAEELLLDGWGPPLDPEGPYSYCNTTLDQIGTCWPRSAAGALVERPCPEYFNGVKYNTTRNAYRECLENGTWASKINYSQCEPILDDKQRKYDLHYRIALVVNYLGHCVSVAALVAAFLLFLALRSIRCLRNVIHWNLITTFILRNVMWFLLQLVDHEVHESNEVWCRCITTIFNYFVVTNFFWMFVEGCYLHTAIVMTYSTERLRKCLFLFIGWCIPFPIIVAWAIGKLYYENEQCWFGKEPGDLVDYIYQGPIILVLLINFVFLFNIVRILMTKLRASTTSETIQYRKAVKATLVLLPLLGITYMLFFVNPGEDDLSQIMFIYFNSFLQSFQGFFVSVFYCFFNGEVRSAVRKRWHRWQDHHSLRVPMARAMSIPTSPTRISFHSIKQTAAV
Method in brief: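 SK-N-MC cells stably expressing human CRHR2 were treated with peptides (1 pM to 1 μM) for 60 min at 37 °C in IBMX-containing medium, with 10 μM forskolin as positive control. Cells were lysed with 0.5 M HCl and cAMP measured by [125I]-cAMP competition flash plate. A50 came from Hill-equation fits, normalised to h-SCP maximum.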

human CRHR2 [2] = target: T1, human CRHR2; experiment: CRHR2 radioligand binding, [125I]-anti-sauvagine-30, SK-N-MC membranes; conditions: for Ki / nH: CRHR2
Protocol: The binding profile of h-SCP (SEQ ID NO:1) at CRHR2 was determined in radioligand binding studies in a membrane preparation of SK-N-MC cells stably transfected with human CRHR2 using [^125I]-anti-sauvagine-30 as the radiolabel. […] The solution was then homogenized with a Polytron tissue grinder at a setting of 10 and 7×3 s (Brinkmann Instruments, Westbury, N.Y.). […] The supernatant was re-centrifuged at 26,892×g for 25 min at 4° Celsius with the final pellet being re-suspended in assay buffer. […] For competition studies, cell membranes of […] volume were incubated with either 60 pM [^125I]-anti-sauvagine-30 in 50 μl volume for the CRHR2 assay or with)[^125I]-([…]-sauvagine for the CRHR1 assay in the presence of 15 μl of competing ligand for 120 min having a total volume of 150 μl. […] The bound radioactivity was separated by filtration using a Multiscreen Resist manifold (Millipore Corp., Billerica, Mass., U.S.A). The filters were washed three times with ice-cold PBS at pH 7.5 and radioactivity retained on the filters was quantified by its liquid scintillation measured by a TopCount counter (Packard BioScience, Boston, Mass., U.S.A). All experiments were performed in triplicate. Data from individual competition curves were expressed as the percentage of specific [^125I]-anti-sauvagine-30 or)[^125I]-([…]-sauvagine binding (B) within each experiment. […] The competition curve obtained with h-SCP (SEQ ID NO:1) was biphasic.

[3] = Table 11, h-CRHR2 transfected SK-N-MC cells, 1 hr at 37° Celsius, read-out: pA50 (Experimental) (converted)

| nH (Hill slope) (human CRHR2 [1]; Table 11) | αmax (maximal asymptote) (human CRHR2 [1]; Table 11) | EC50 (human CRHR2 [1]; [3]) | Ki (human CRHR2 [2]) | nH (human CRHR2 [2]) | nH (Hill slope) (human CRHR2 [1]; Table 11, listed as h-SRP) | αmax (maximal asymptote) (human CRHR2 [1]; Table 11, listed as h-SRP) | Compound | nH (Hill slope) (human CRHR2 [1]; Table 11, listed as h-SCP) | αmax (maximal asymptote) (human CRHR2 [1]; Table 11, listed as h-SCP) | nH (human CRHR2 [1]; Table 12) | αmax (human CRHR2 [1]; Table 12, normalized to the maximum response to h-SCP) | EC50 (human CRHR2 [1]; Table 13, cysteine mutation, N-ethylmaleimide capping, pegylation, read-out: pA50 (converted)) | nH (human CRHR2 [1]; Table 14) | αmax (human CRHR2 [1]; Table 14, % of the maximum response obtained to h-SCP) | EC50 (human CRHR2 [1]; Table 14, read-out: pA50 (converted)) | competition curve / binding profile (human CRHR2 [2]; CRHR2, [125I]-anti-sauvagine-30) | IC50 (human CRHR2 [2]; biphasic competition curve, read-out: low pIC50 (low affinity receptor binding state) (converted)) |
| --- | --- | --- | --- | --- | --- | --- | --- | --- | --- | --- | --- | --- | --- | --- | --- | --- | --- |
| 1.07 | 110.5 | 0.832 nM | 3.09 nM | 1.19 ± 0.14 | – | – | CC[C@H](C)[C@H](NC(=O)[C@H](CO)NC(=O)[C@H](CC(C)C)NC(=O)[C@@H]1CCCN1C(=O)[C@@H]1CCCN1C(=O)[C@H](CC(=O)O)NC(=O)[C@@H](N)CC(=O)O)C(=O)N[C@@H](CC(=O)O)C(=O)N[C@@H](CC(C)C)C(=O)N[C@H](C(=O)N[C@@H](Cc1ccccc1)C(=O)N[C@@H](Cc1c[nH]cn1)C(=O)N[C@@H](CC(C)C)C(=O)N[C@@H](CC(C)C)C(=O)N[C@@H](CCCNC(=N)N)C(=O)N[C@H](C(=O)N[C@@H](CC(C)C)C(=O)N[C@@H](CC(C)C)C(=O)N[C@@H](CCC(=O)O)C(=O)N[C@@H](CC(C)C)C(=O)N[C@@H](C)C(=O)N[C@@H](CCCNC(=N)N)C(=O)N[C@H](C(=O)N[C@@H](CCC(N)=O)C(=O)N[C@@H](CO)C(=O)N[C@@H](CCC(N)=O)C(=O)N[C@@H](CCCNC(=N)N)C(=O)N[C@@H](CCC(=O)O)C(=O)N[C@@H](CCCNC(=N)N)C(=O)N[C@@H](C)C(=O)N[C@@H](CCC(=O)O)C(=O)N[C@@H](CCC(N)=O)C(=O)N[C@@H](CC(N)=O)C(=O)N[C@@H](CCCNC(=N)N)C(=O)N[C@H](C(=O)N[C@H](C(=O)N[C@@H](Cc1ccccc1)C(=O)N[C@@H](CC(=O)O)C(=O)N[C@@H](CO)C(=O)N[C@H](C(N)=O)C(C)C)[C@@H](C)CC)[C@@H](C)CC)[C@@H](C)O)[C@@H](C)O)[C@@H](C)O [SEQ ID NO: 114, DDPPLSIDLTFHLLRTLLELARTQSQRERAEQNRIIFDSV-NH2] | – | – | – | – | – | – | – | – | – | – |
| – | – | 0.479 nM and 0.263 nM and 0.589 nM | 26.9 nM | 1.26 ± 0.14 | 1.08 and 1.06 and 0.99 | 113.5 and 108.7 and 98.56 | H-HPGSRIVLSLDVPIGLLQILLEQARARAAREQATTNARILARV-NH2 [SEQ ID NO: 117, HPGSRIVLSLDVPIGLLQILLEQARARAAREQATTNARILARV-NH2, reference compound] | – | – | – | – | – | – | – | – | – | – |

| Compound | nH (Hill slope) (human CRHR2 [1]; Table 11) | αmax (maximal asymptote) (human CRHR2 [1]; Table 11) | EC50 (human CRHR2 [1]; [3]) | Ki (human CRHR2 [2]) | nH (human CRHR2 [2]) | nH (Hill slope) (human CRHR2 [1]; Table 11, listed as h-SRP) | αmax (maximal asymptote) (human CRHR2 [1]; Table 11, listed as h-SRP) | nH (Hill slope) (human CRHR2 [1]; Table 11, listed as h-SCP) | αmax (maximal asymptote) (human CRHR2 [1]; Table 11, listed as h-SCP) | nH (human CRHR2 [1]; Table 12) | αmax (human CRHR2 [1]; Table 12, normalized to the maximum response to h-SCP) | EC50 (human CRHR2 [1]; Table 13, cysteine mutation, N-ethylmaleimide capping, pegylation, read-out: pA50 (converted)) | nH (human CRHR2 [1]; Table 14) | αmax (human CRHR2 [1]; Table 14, % of the maximum response obtained to h-SCP) | EC50 (human CRHR2 [1]; Table 14, read-out: pA50 (converted)) | competition curve / binding profile (human CRHR2 [2]; CRHR2, [125I]-anti-sauvagine-30) | IC50 (human CRHR2 [2]; biphasic competition curve, read-out: low pIC50 (low affinity receptor binding state) (converted)) |
| --- | --- | --- | --- | --- | --- | --- | --- | --- | --- | --- | --- | --- | --- | --- | --- | --- | --- |
| H-TKFTLSLDVPTNIMNLLFNIAKAKNLRAQAAANAHLMAQI-NH2 [SEQ ID NO: 1, TKFTLSLDVPTNIMNLLFNIAKAKNLRAQAAANAHLMAQI-NH2] | – | – | 0.389 nM and 0.708 nM and 0.437 nM and 0.407 nM | 1950 nM | 1.00 ± 0.04 | – | – | 0.99 and 1.04 and 1.39 and 1.55 | 99.31 and 97.53 and 116.1 and 98.2 | 1.18 | 98.68 | 0.182 to 0.339 nM | 1.26 | 100.1% | 0.398 nM | biphasic | 251 nM |
